Experimental data as given in patent publication US11826325B2, “Use of Belinostat or pharmaceutically acceptable salt thereof in preparation of drug for treating infection” (priority 2021, dated 2023).

Legend:
HU protein [1] = target: T1, HU protein (Bacillus subtilis, UniProt P08821); assay: Nuclear magnetism Titration (HSQC) binding experiment; conditions: 10 μM HU protein, 1 μL of 100 mM Belinostat stock added
Text: (§1) At the molecular level, a binding effect of Belinostat with the HU protein was verified by nuclear magnetism Titration and waterLOGSY experiments. The isoleucine (Ile) at the 71^St site in the HU protein was mutated into alanine (Ala) to obtain a corresponding mutant (hereinafter referred to as “HU^171A protein”), then the waterLOGSY experiment was repeated, and the binding effect of the drug and the mutated HU^171A protein disappeared, proving that a key binding site of the two was the amino acid at the 71st site in the HU protein. Specific experimental steps and experimental results are as follows:
An appropriate amount of Belinostat (MedChemExpress Company) was weighed and dissolved in DMSO-d6 (Solarbio Science & Technology Co., Ltd.) to obtain a stock solution of Belinostat with a concentration of 100 mM for use. 480 μl of solution containing 10 μM of HU protein was taken, 20 μL of D2O was added and mixed evenly, the obtained solution was transferred into a nuclear magnetic resonance tube, and an HSQC spectrogram of the HU protein was recorded on a Brooke 600 MHz nuclear magnetic resonance spectrometer (Avance III). 1 μL of Belinostat stock solution was taken, added into the foregoing nuclear magnetic resonance tube and mixed evenly, and then an HSQC spectrogram was recorded again.

HU protein [2] = target: T1, HU protein; assay: waterLOGSY 1D NMR binding experiment, HU protein; conditions: 10 μM protein, pH 6.5 buffer
Text: as §1
(§2) 1 μL of the foregoing Belinostat stock solution was taken, 479 μL of buffer solution (300 mM of NaCl and 50 mM of K2HPO4, with the pH of 6.5) and 20 μL of D2O were added and mixed evenly, and then the obtained solution was transferred to the nuclear magnetic resonance tube for use. In addition, two parts of 1 μL of the foregoing Belinostat stock solution were taken, an appropriate amount of HU protein and HU^171A protein were added respectively, then an appropriate amount of buffer solution and 20 μL of D2O were added respectively, so that the total volume of the solution was 500 μL, and the final protein concentration was 10 μm. After uniform mixing, the obtained solutions were transferred to nuclear magnetic resonance tubes for use. […]

HU^171A protein = HU^171A protein (Bacillus subtilis, UniProt P08821, I71A); assay: waterLOGSY 1D NMR binding experiment, mutated HU protein; conditions: 10 μM protein, pH 6.5 buffer
Text: as §1, §2

[3] = tested on: Bacillus subtilis (ATCC 23857 strain); assay: Growth curve of Bacillus subtilis (OD600); format: cell-based; conditions: 24 hours
Procedure: (§3) Before the experiment, an appropriate amount of Belinostat was weighed and dissolved in DMSO to obtain a mother liquid with a concentration of 100 mM. The mother liquid was diluted with an LB medium for use. Bacillus subtilis used in this embodiment was ATCC 23857 strain, and Staphylococcus aureus was methicillin-resistant Staphylococcus aureus ATCC BAA-1761 strain.
The experiment was performed on a 96-well plate, four groups of drug treated groups and one blank control group (that is, the Control group) were set, and each group had three repeat wells. A bacterial solution of Bacillus subtilis (ATCC 23857 strain) cultured in an LB medium was diluted to 5×10^5 CFU/mL with an LB medium, 15 wells were selected in the middle of the 96-well plate, 100 μL of diluted bacterial solution was added to each well, and then 100 μL of Belinostat solution diluted with the LB medium was added, so that the final drug concentrations in the four drug treated groups were 100 μM, 200 μM, 400 μM, and 500 μM, respectively. DMSO and the LB medium were added to the blank control group, so that the final concentration of the DMSO was 0.5% and a volume of a reaction system was consistent with that of each drug treated group. Shaking culture was performed at 37° C. for 24 hours.
Absorbance at 600 nm was used as an index of a bacterial concentration in the culture solution for determining once every 3 hours. Finally, with OD600 as a vertical coordinate and time as a horizontal coordinate, a bacterial growth curve was drawn.

Bacillus subtilis [4] = assay: DAPI staining of Bacillus subtilis; format: cell-based; conditions: 500 μM, 4 hours
Procedure: as §3
(§4) The experiments were performed in EP tubes, and one drug treated group and one blank control group were set. A bacterial solution of Bacillus subtilis cultured in an LB medium was diluted to 5×10^5 CFU/mL with the LB medium, 100 μL of diluted bacterial solution was taken and added to a 1.5 mL EP tube, and then 100 μL of Belinostat solution diluted with the LB medium was added, so that the final drug concentration was 500 μM. DMSO and the LB medium were added to the blank control group, so that the final concentration of the DMSO was 0.5% and a volume of a reaction system was consistent with that of the drug treated group. Three replicate tube were set in each group, and shaking culture was performed at 37° C. for 4 hours. […]

[5] = tested on: Staphylococcus aureus (ATCC BAA-1761 strain); assay: DAPI staining of Staphylococcus aureus; format: cell-based; conditions: 500 μM, 4 hours, methicillin-resistant strain
Procedure: as §3, §4

Bacillus subtilis [6] = assay: Transmission electron microscope observation of Bacillus subtilis; format: cell-based; conditions: 500 μM, 4 hours
Procedure: as §3
(§5) A bacterial solution of Bacillus subtilis cultured in an LB medium was diluted to 5×10^5 CFU/mL with the LB medium, 2.5 mL of diluted bacterial solution was taken and added to a 15 mL centrifuge tube, and then 2.5 mL of Belinostat solution diluted with the LB medium was added, so that the final drug concentration was 500 μM. 25 μL of DMSO and an appropriate amount of LB medium were added to the blank control group (the Control group) to ensure that a volume of a reaction system was consistent with that of the drug treated group (the Treated group). Three replicate tubes were set in each group. Shaking culture was performed at 37° C. for 4 hours, and bacteria were collected by centrifugation. […]

Staphylococcus aureus = assay: Transmission electron microscope observation of Staphylococcus aureus; format: cell-based; conditions: 500 μM, 4 hours
Procedure: as §3, §5

[7] = tested on: Staphylococcus aureus (ATCC BAA-1761 strain); assay: Mouse superficial skin injury infection model, viable bacterial count on infected wound; format: in vivo; conditions: mice; for bacterial count in skin lesion site compared with blank control group: topical twice a day for 3 days, p.value=0.0006
Procedure: (§6) Medical tape; 3% chloral hydrate; normal saline; 0.1 μM Belinostat and 100 μM Belinostat (with solvents being 10% glycerin); a commercially available fusidic acid ointment (2% drug content); an LB plate; an independent air supply cage for mice; surgical scissors; tweezers; and a hair removal device.
(§7) 20 female BALB/c mice aged 6-8 weeks were kept in the independent air supply cage.
Preparation of a bacterial solution: Staphylococcus aureus (ATCC BAA-1761 strain), preserved by the Laboratory Department of the First Affiliated Hospital of Xi′an Jiaotong University. Before the experiment, Staphylococcus aureus was inoculated in 5 mL of LB and placed in an incubator at 37° C. for shaking culture, and when the amount of bacteria was about 10^7 CFU/mL, the bacteria were taken out for use.
Back skin of 6-8 week-old female BALB/c mice was depilated with a depilatory paste before modeling, and an exposed skin region with a size of about 1 cm^2 was formed. On the day of modeling, the mice were anesthetized by intraperitoneal injection of 3% chloral hydrate at 10 mL/kg. A same operator pasted the medical adhesive tape to the depilated skin of the mice with basically a same strength, and then tore the medical adhesive tape off. The foregoing paste-tear operation was repeated many times to remove stratum corneum, and the adhesive tape needed to be replaced during each paste-tear process. When the skin of the mice became red and shiny, but there was no regular bleeding, the paste was stopped. The foregoing 10 μL of bacterial suspension was evenly applied to the damaged skin of the mice, and the infection lasted for 24 hours to establish the model of superficial skin injury of the mice.
The mice were randomly divided into four groups, which were a blank control (control) group, a low-concentration X group (low-concentration group, with a specific concentration of 0.1 μM), a high-concentration X group (high-concentration group, with a specific concentration of 100 μM), and a fusidic acid group (fusidic acid group, that is, a positive control group), with five mice in each group. All the mice of the blank control group were killed the day before the start of treatment to quantify an amount of bacterial inoculation. The three drug groups were administered twice a day (8:00 am. and 8:00 p.m. respectively) for three consecutive days after the infection. Dosages of the low-concentration X group and the high-concentration X group were 50 μL/time for each mouse, and a dosage of the fusidic acid group was 0.1 g/time for each mouse. […] After the experiment, the mice were killed.
After the mice were killed, a wound of about 1 cm^2 was excised immediately, and put into a tissue homogenizing tube with 1 mL of normal saline and magnetic beads for tissue homogenization. 100 μL of tissue homogenate was diluted with normal saline for 10^1, 10^2, 10^3, and 10^4 times gradient, and then 100 μL of each diluted solution was evenly spread on an LB plate. After inverted overnight culture for 12-24 hours, colonies were counted and the count was converted into bacterial content (CFU/cm^2) per square centimeter of tissue.

[8] = Mouse superficial skin injury infection model, wound healing; format: in vivo, BALB/c mice; conditions: mice, low-concentration group 0.1 μM vs high-concentration group 100 μM and fusidic acid group
Procedure: as §6, §7
Back skin of 6-8 week-old female BALB/c mice was depilated with a depilatory paste before modeling, and an exposed skin region with a size of about 1 cm^2 was formed. On the day of modeling, the mice were anesthetized by intraperitoneal injection of 3% chloral hydrate at 10 mL/kg. A same operator pasted the medical adhesive tape to the depilated skin of the mice with basically a same strength, and then tore the medical adhesive tape off. […]
The mice were randomly divided into four groups, which were a blank control (control) group, a low-concentration X group (low-concentration group, with a specific concentration of 0.1 μM), a high-concentration X group (high-concentration group, with a specific concentration of 100 μM), and a fusidic acid group (fusidic acid group, that is, a positive control group), with five mice in each group. All the mice of the blank control group were killed the day before the start of treatment to quantify an amount of bacterial inoculation. […]

T1 sequence (P08821 whole entry): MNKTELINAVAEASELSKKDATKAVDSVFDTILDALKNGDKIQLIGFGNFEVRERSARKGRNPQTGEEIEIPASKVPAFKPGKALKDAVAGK
HU^171A protein, sequence (P08821 whole entry I71A): as the sequence (P08821 whole entry) above, with I71A counted along it

Structure (SMILES)	binding to HU protein (peak migration and peak intensity change in HSQC spectrum) (HU protein [1])	binding to HU protein (waterLOGSY peaks reversed into negative peaks) (HU protein [2])	binding to mutated HU^171A protein (waterLOGSY) (HU^171A protein)	effect on growth of Bacillus subtilis (absorbance at 600 nm vs blank control) ([3]; 200 μM)	effect on growth of Bacillus subtilis ([3]; 400 μM)	effect on growth of Bacillus subtilis ([3]; 500 μM)	effect on growth of Bacillus subtilis ([3]; different concentrations (100, 200, 400, 500 μM), 37° C.)	DAPI staining, nucleus region morphology (Bacillus subtilis [4])	DAPI staining, nucleus region morphology [5]	transmission electron microscope, cell length and nucleoid regions (Bacillus subtilis [6])	transmission electron microscope, nucleoid regions (Staphylococcus aureus)	bacterial load at the skin lesion site, two concentrations ([7]; 0.1 μM and 100 μM, 50 μL/time, twice a day, 3 days)	antibacterial ability compared with commercial fusidic acid ([7]; dosage of Belinostat lower than that of fusidic acid)	curative effect compared with fusidic acid ([7]; molar dosages much lower than fusidic acid)	bacterial count in skin lesion site compared with blank control group [7]	wound healing speed [8]
O=C(/C=C/c1cccc(S(=O)(=O)Nc2ccccc2)c1)NO [Belinostat, N-hydroxy-3-(3-[(phenylamino)sulfonyl]phenyl)acrylamide]	can bind to the HU protein	bound to the HU protein	could not react with the mutated HU protein	relatively strong inhibitory effect on bacterial growth	almost completely inhibited	almost completely inhibited	inhibitory effect on growth of Bacillus subtilis	bacterial nucleus region became longer	bacterial nucleus region was dispersed	increased to different degrees, and nucleoid regions were scattered in many places in cytoplasm	became inconspicuous and showed a loose state	same bactericidal effect	equivalent antibacterial ability	better than that of the fusidic acid	significantly reduced	significantly faster
CC(=O)O[C@H]1C[C@@]2(C)[C@@H](C[C@@H](O)[C@H]3[C@@]4(C)CC[C@@H](O)[C@@H](C)[C@@H]4CC[C@@]32C)/C1=C(\CCC=C(C)C)C(=O)O [fusidic acid]															significantly reduced	
